According to patent US20170217982A1, “Compound isolated from Pseudolysimachion rotundum var. subintegrum, the composition comprising the same for treating allergic disease, inflammatory disease, asthma or chronic obstructive pulmonary disease and the use thereof” (YUNGJIN PHARMACEUTICAL CO., LTD, priority 2014, published 2017):
Values joined by “and” are separate entries in the source; they are usually repeats but may differ in a detail not shown here. Equal entries are not always repeated.

Columns and labels:
MUC5AC protein = test: Inhibition of MUC5AC protein secretion (modified ELISA) in H292 cells; type: cell-based, human; settings: TNF-alpha 20 ng/ml
Description: In order to determine the inhibitory effect on the reproduction of MUC5AC protein, following test was performed by the method disclosed in the literature (Sikder, M A. et al., Phytother. Res., 2014, 28, 62-68)
For the immunoassay on reproduced MUCSAC, 50 μL of collected supernatant in Experimental Example 3 was distributed to 96 well plate and dried in a thermostat at 50[…].
After washing with 1% BSA added PBS solution, MUCSAC antibody (ab3649, abcam Co.) was added to react together at room temperature for 1 hour and then secondary antibody was added thereto to react together for 1 hour. After re-washing, 3,3′,5,5′-tetramethylbenzidine peroxide solution (54827-17-7, Sigma-aldrich) was added thereto to react together for 20 mins. After stopping the reaction by adding sulfuric acid solution, the absorbance was determined by VERSAmax microplate reader, (SMP500-14915, Molecular Devices, USA) at 450 nm (Sikder, M. A. et al., Phytother. Res., 2014, 28, 62-68; Takeyama, K. et al. Proc. Natl. Acad. Sci. U.S.A., 1999, 96, 3081-3086).

COPD induced mice = test: Anti-COPD effect in cigarette smoke + LPS COPD mouse model; type: in vivo, C57BL/6N mouse; settings: for activity of neutrophils elastase enzyme in BALF comparing with COPD induced group / reduced level of ROS in BALF comparing with COPD induced group / reduced level of neutrophils in BALF comparing with COPD induced group / reduced level of proteins in BALF comparing with COPD induced group / reduced level of IL-6 in BALF comparing with COPD induced group / reduced level of TNF-alpha in BALF comparing with COPD induced group: COPD mice; for reduced level of IL-6 in BALF comparing with COPD induced group / reduced level of TNF-alpha in BALF comparing with COPD induced group: ELISA
Description: In order to determine the anti-COPD effect of inventive compounds in COPD animal model, following test was performed by using COPD induced mice as disclosed in the literature (Bhaysar, T. et al., J. Chronic Obstr. […]. Dis., 2008, 3, 477-481). Specific pathogen-free male C57BL/6N mouse (about 22-24 g), aged 6 weeks, which were routinely screened serologically for relevant respiratory pathogens, were purchased from Koatech Co. (koatech.co.kr, Seoul, Korea) and bred allowing to access freely to feed (antibiotic free, Samyang Oil & Feed Corp., Korea) and water in breeding room controlling the temperature of 22±2° C., and humidity of 55±15% at the light-dark cycle for 12 hours and acclimated with the experimental environment for 1 week. 2 kinds of test samples, […] ingredient: Roflumilast, 10 mg/kg) were dissolved in 0.5% sodium carboxymethyl cellulose ([…], Sigma-Aldrich, USA) and used as test samples. KS534, and Rolflumilast (ROF 11-492, HETERO, India) were orally administrated to the mice, 1 hour before prior the intratracheal instillation (i.t.). 3R4F Kentuchy Reference Cigarettes ([…], USA) was used as a standard cigarette for generating a cigarette smoke. The cigarette containing 9.4 mg of tar, 11 mg of TPM (total particle matter) and 12 mg of carbon monooxide per piece, was used after harmonizing with the temperature of 22±1° C. and humidity of 60±2% after opening for 48-72 hrs. The exposure of cigarette smoke was performed by using a cigarette smoke generator (DBL Co. Ltd., dhbiolink.com, Korea). The mice were divided into five groups: normal (NC), COPD (cigarette smoke with LPS intranasal instillation), Rof (10 mg/kg of roflumilast, p.o.+cigarette smoke with LPS intranasal instillation), and KS534-15 and 30 (15 mg/kg and 30 mg/kg of KS534, p.o.+cigarette smoke with LPS instillation, respectively). Exposure of cigarette smoke (one puff/min, 35 ml puff volume over 2 s, every 60 s, 8 cigarettes per day) was conducted using a cigarette smoke generator. The mice received 1 h of cigarette smoke exposure in an exposure chamber (50 cm×30 cm×30 cm) for 3 days. Roflumilast and piscroside C were administered to mice by oral lavage 1 h before cigarette smoke exposure for 3 days. LPS was intranasally instilled ([…] dissolved in 50 μL distilled water) under anesthesia 1 h after the final exposure to cigarette smoke. After the end of experiment, the blood, BALF, and pneumonocyte of each rat were isolated and collected to test. After finishing the experiment, rats were anaesthetized with Zoleti150 (3VX9, Virbac, France, p.o) and the blood was delivered through caudal veins. In order to isolate BALF from lung, the bronchus of right lung was ligated with suture and then performed to tracheostomy. IV-use catheter (16 GA, 3S-Cath, Dukwoo, Korea) was put into the bronchus, and both of bronchus and catheter (16 GA, 3S-Cath, Dukwoo, Korea) were fixed with suture. The injector containing 1 ml of DPBS 0.7 (Dubecco's phosphate-buffered saline, Invitrogen, USA) was connected thereto and DPBS was forced to circulate three times to isolate BALF. The right lung ligated with suture was isolated, fixed with 10% neutral formalin solution, and the remaining lung tissue was reserved in refrigerator at -70° C. The isolated BALF was centrifuged for 15 mins at 1500 rpm to prepare cell pellet and the supernatant was reserved in refrigerator at -70° C. for cytokine analysis. The cell pellet was suspended in DPBS, and the cell was attached to a slide glass using by cytospin centrifuge (CS03270047, Hanil, Korea). Diff-Quik staining (ZS1003, Sysmex, Japan) was performed and the cell was observed by optical microscopy (DM1000, Leica, German) to count the number of immunocyte in each test sample. The level of ROS in BALF isolated from the mice was determined by DCF-DA (dihydrodo chloro fluoresce indiacetate, 35854, Sigma-Aldrich, USA) and the final concentration of DCF-DA was adjusted to 20 μm in 200 μL to incubate 30 mins. […]

O=C(CO)O[C@@H]1O[C@@H]2C[C@H]3[C@H](OC(=O)c4ccc(O)c(O)c4)[C@@H](Cl)[C@@](O)(CO2)[C@@H]13 [KS-534, (3R,5S,5aS,6R,7S,8R,8aS)-8-chloro-8a-hydroxy-5-(2-hydroxyacetoxy) hexahydro-1H-3,6-methanocyclopenta[e][1,3]dioxepin-7-yl3,4-dihydroxybenzoate]
Inhibitory ratio (%) of MUC5AC secretion (MUC5AC protein; 2.5 μm): 6.62% | MUC5AC secretion (relative % comparing with TNF-alpha treatment group) (MUC5AC protein; 2.5 μm): 93.38% and 93.38 ± 0.90% | Inhibitory ratio (%) of MUC5AC secretion (MUC5AC protein; 5 μm): 21.73% | MUC5AC secretion (relative % comparing with TNF-alpha treatment group) (MUC5AC protein; 5 μm): 78.27% and 78.27 ± 2.16% | Inhibitory ratio (%) of MUC5AC secretion (MUC5AC protein; 10 μm): 35.23% | MUC5AC secretion (relative % comparing with TNF-alpha treatment group) (MUC5AC protein; 10 μm): 64.77% and 64.77 ± 1.56% | activity of neutrophils elastase enzyme in BALF comparing with COPD induced group (COPD induced mice; 15 mg/kg p.o.): remarkably reduced | reduced level of ROS in BALF comparing with COPD induced group (COPD induced mice; 15 mg/kg p.o.): 19.5% | reduced level of neutrophils in BALF comparing with COPD induced group (COPD induced mice; 15 mg/kg p.o.): 26.3% | reduced level of proteins in BALF comparing with COPD induced group (COPD induced mice; 15 mg/kg p.o.): 20.8% | reduced level of IL-6 in BALF comparing with COPD induced group (COPD induced mice; 15 mg/kg p.o.): 35.8% | reduced level of TNF-alpha in BALF comparing with COPD induced group (COPD induced mice; 15 mg/kg p.o.): 18.3% | activity of neutrophils elastase enzyme in BALF comparing with COPD induced group (COPD induced mice; 30 mg/kg p.o.): remarkably reduced | reduced level of ROS in BALF comparing with COPD induced group (COPD induced mice; 30 mg/kg p.o.): 27.5% | reduced level of neutrophils in BALF comparing with COPD induced group (COPD induced mice; 30 mg/kg p.o.): 25.7% | reduced level of proteins in BALF comparing with COPD induced group (COPD induced mice; 30 mg/kg p.o.): 28.5% | invasion of the inflamed cells in lung tissue (histology) (COPD induced mice; 30 mg/kg p.o., COPD mice (FIG. 14)): significantly reduced | reduced level of IL-6 in BALF comparing with COPD induced group (COPD induced mice; 30 mg/kg p.o.): 50.6% | reduced level of TNF-alpha in BALF comparing with COPD induced group (COPD induced mice; 30 mg/kg p.o.): 27.6%
